In the supplement of paper PMC10307832:

Key:
Assay in all cases: relative viability (nuclei count vs DMSO), 5 days (fraction); higher = more cells survive
[1] = compound: c1ccc2c(CCNc3ccc(Nc4ccncc4)cc3)c[nH]c2c1 [Serdemetan] + CS(=O)(=O)N1CCN(Cc2cc3nc(-c4cccc5[nH]ncc45)nc(N4CCOCC4)c3s2)CC1 [Pictilisib] (partner 1 µM)
In short: (§1)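 Each reported value is a median over duplicate plates. It expresses relative viability: treated-well nuclei count divided by vehicle-well nuclei count. Lung cancer cell lines in 1536-well plates were dosed by pin tool a day after seeding, alone with one drug or with a fixed anchor-drug dose plus five library-drug doses (not always all listed) in √10 steps, and nuclei were counted after 5 days.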

[2] = compound: c1ccc2c(CCNc3ccc(Nc4ccncc4)cc3)c[nH]c2c1 [Serdemetan] + O=C(c1cc(Cc2n[nH]c(=O)c3ccccc23)ccc1F)N1CCN(C(=O)C2CC2)CC1 [Olaparib] (partner 8 µM)
In short: as §1

[3] = compound: C1CC(C2=C(C1)C3=C(N2)C=CC(=C3)Cl)C(=O)N [Selisistat] + Cc1nc(Nc2ncc(C(=O)Nc3c(C)cccc3Cl)s2)cc(N2CCN(CCO)CC2)n1 [Dasatinib] (partner 0.075 µM)
In short: as §1

[4] = compound: C1CC(C2=C(C1)C3=C(N2)C=CC(=C3)Cl)C(=O)N [Selisistat] + O=C(c1cc(Cc2n[nH]c(=O)c3ccccc23)ccc1F)N1CCN(C(=O)C2CC2)CC1 [Olaparib] (partner 8 µM)
In short: as §1

UMC-11 was tested, and the relative viability ([1]; first compound 0.04 µM) was 0.813, the relative viability ([1]; first compound 0.1265 µM) was 0.866 and the relative viability ([1]; first compound 0.4 µM) was 0.824. For the same cell line, the relative viability ([1]; first compound 1.265 µM) was 0.47, the relative viability ([1]; first compound 4 µM) was 0.737 and the relative viability ([2]; first compound 0.04 µM) was 0.345. The relative viability ([2]; first compound 0.1265 µM) was 0.332, the relative viability ([2]; first compound 0.4 µM) was 0.319 and the relative viability ([2]; first compound 1.265 µM) was 0.255. It also gave a relative viability ([2]; first compound 4 µM) of 0.593, a relative viability ([3]; first compound 0.4 µM) of 0.434 and a relative viability ([3]; first compound 1.265 µM) of 0.477. For the same cell line, the relative viability ([3]; first compound 4 µM) was 0.521, the relative viability ([3]; first compound 12.65 µM) was 0.476 and the relative viability ([3]; first compound 40 µM) was 0.559. For the same cell line, the relative viability ([4]; first compound 0.4 µM) was 0.331, the relative viability ([4]; first compound 1.265 µM) was 0.356 and the relative viability ([4]; first compound 4 µM) was 0.271. It also gave a relative viability ([4]; first compound 12.65 µM) of 0.334 and a relative viability ([4]; first compound 40 µM) of 0.353.
